Usually inhibition stands for the change of the read-out against control, counted positive when it falls.

For one molecule, inhibition results are on record in PMC6193938, “Characterization of a novel AICARFT inhibitor which potently elevates ZMP and has anti-tumor activity in murine models” (Scientific Reports, 2018).

Assay in all cases: CEREP protein kinase assay
Assay type in all cases: biochemical

For one test, the target named is T1, AXL (Homo sapiens, UniProt P30530).
T1 construct: purchased CEREP Panlabs (Eurofins)
T1 sequence (P30530 26-894): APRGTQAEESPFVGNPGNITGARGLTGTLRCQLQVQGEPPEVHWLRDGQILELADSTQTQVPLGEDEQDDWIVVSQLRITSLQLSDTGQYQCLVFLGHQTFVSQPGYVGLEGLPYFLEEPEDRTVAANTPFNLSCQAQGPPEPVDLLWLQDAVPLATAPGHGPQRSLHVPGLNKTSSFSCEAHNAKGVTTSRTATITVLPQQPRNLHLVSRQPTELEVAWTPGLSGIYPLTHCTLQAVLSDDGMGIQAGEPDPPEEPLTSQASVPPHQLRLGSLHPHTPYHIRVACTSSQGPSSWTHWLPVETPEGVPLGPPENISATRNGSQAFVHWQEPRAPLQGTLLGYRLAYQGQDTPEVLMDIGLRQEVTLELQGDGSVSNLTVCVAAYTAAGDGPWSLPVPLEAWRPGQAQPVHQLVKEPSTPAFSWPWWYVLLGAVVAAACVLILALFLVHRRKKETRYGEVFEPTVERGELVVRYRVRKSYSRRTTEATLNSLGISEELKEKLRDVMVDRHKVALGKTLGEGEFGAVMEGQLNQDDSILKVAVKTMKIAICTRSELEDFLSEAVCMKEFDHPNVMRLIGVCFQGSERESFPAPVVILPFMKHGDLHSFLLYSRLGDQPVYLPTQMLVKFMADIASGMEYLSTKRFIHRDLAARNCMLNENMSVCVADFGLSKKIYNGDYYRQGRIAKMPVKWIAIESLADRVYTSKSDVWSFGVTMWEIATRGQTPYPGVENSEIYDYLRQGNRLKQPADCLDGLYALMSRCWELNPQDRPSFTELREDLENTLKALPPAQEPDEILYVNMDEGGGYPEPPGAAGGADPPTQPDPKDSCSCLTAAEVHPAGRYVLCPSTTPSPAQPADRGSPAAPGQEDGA

A further test addresses T2, IKKb (Homo sapiens, UniProt O14920).
T2 construct: purchased CEREP Panlabs (Eurofins)
T2 sequence (O14920 1-756): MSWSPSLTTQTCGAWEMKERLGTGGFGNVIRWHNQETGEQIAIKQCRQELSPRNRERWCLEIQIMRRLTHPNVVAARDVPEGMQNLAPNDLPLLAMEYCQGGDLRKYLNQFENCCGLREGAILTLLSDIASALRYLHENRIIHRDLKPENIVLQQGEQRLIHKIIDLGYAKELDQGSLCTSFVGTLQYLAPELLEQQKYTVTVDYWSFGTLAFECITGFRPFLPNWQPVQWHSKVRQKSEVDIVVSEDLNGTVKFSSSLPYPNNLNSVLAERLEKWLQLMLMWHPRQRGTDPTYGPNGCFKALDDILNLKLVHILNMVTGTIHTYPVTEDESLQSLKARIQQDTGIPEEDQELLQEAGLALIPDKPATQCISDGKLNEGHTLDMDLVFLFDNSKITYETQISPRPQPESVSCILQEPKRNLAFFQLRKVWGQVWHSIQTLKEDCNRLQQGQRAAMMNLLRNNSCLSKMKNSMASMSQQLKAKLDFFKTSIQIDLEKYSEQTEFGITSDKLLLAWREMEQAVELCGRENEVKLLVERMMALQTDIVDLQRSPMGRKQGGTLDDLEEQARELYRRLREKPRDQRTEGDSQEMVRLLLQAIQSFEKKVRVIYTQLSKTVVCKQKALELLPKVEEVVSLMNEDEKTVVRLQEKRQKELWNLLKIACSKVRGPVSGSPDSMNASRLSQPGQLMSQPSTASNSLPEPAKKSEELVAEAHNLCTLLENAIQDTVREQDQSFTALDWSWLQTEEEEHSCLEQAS

In a further test the target is T3, EPHB1 (Homo sapiens, UniProt P54762).
T3 construct: purchased CEREP Panlabs (Eurofins)
T3 sequence (P54762 18-984): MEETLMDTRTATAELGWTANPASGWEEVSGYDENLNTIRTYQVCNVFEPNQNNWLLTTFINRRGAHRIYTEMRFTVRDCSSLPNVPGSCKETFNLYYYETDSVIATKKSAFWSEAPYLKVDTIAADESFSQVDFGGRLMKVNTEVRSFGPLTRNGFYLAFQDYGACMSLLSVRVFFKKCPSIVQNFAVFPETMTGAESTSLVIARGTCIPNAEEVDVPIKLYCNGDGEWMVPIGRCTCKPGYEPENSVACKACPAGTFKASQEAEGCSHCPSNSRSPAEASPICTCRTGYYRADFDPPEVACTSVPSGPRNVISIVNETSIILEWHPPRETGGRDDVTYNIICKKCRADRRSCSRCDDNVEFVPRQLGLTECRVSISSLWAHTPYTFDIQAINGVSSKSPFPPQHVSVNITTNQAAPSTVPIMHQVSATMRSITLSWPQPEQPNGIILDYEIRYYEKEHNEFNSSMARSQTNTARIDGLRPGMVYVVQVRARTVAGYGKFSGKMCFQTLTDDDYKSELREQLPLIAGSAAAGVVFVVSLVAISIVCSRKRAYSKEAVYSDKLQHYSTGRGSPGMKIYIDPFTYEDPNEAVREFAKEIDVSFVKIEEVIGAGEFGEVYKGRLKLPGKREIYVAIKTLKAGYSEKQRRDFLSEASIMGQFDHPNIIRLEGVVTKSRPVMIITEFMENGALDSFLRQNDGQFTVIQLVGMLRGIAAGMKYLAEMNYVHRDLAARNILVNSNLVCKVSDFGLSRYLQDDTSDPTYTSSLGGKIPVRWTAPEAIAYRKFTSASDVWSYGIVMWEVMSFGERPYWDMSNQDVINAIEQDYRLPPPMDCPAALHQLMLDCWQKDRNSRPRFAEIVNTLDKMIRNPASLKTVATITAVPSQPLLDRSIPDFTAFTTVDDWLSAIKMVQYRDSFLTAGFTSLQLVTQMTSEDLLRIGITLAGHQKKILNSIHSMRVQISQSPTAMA

Take `O=c1[nH]ccc2cc(F)c(NS(=O)(=O)c3ccc(N4CC[C@@H](O)C4)s3)cc12` [LSN3213128, N-(6-Fluoro-1-oxo-1,2-dihydroisoquinolin-7-yl)-5-[(3R)-3-hydroxypyrrolidin-1-yl]thiophene-2-sulfonamide]: the inhibition at 0.2 µM on AXL (@ 0.2 uM) was -9.2%; against IKKb (@ 0.2 uM), -6.4%; on EPHB1 (@ 0.2 uM), -10.2%. Besides, the results for the inhibition at 2 µM at AXL (@ 2 uM), at IKKb (@ 2 uM) and at EPHB1 (@ 2 uM) were 2.93%, 0.126% and 11.7%, respectively. The figures for the inhibition at 20 µM at AXL (@ 20 uM), on IKKb (@ 20 uM) and against EPHB1 (@ 20 uM) were 22.2%, 4.91% and 57.1%, respectively.
